Test results reported in ChEMBL document CHEMBL4014279, “Synthesis of novel pyrazolo[3,4-b]quinolinyl acetamide analogs, their evaluation for antimicrobial and anticancer activities, validation by molecular modeling and CoMFA analysis” (Eur J Med Chem, 2017).
In brackets after ≈: the same amount, converted by molar mass. Activity calls are given as the source filed them. No cut-off for these calls is given here.

How the values were obtained:
[1] = test system: Staphylococcus aureus; assay: Antibiofilm activity against Staphylococcus aureus MLS16 MTCC 2940 after 24 hrs by crystal violet staining based method; format: functional; conditions: MLS16 MTCC 2940, 24 h
[2] = test system: Candida albicans; assay: Antibiofilm activity against Candida albicans MTCC 4748 after 24 hrs by crystal violet staining based method; format: functional; conditions: MTCC 4748, 24 h
[3] = test system: [Candida] aaseri; assay: Antifungal activity against Candida aaseri MTCC 1962 after 24 hrs by well diffusion method; format: functional; conditions: Yamadazyma aaseri, MTCC 1962, 24 h
[4] = test system: Candida albicans; assay: Antifungal activity against Candida albicans MTCC 183 after 24 hrs by well diffusion method; format: functional; conditions: MTCC 183, 24 h
[5] = test system: HepG2; assay: Cytotoxicity against human HepG2 cells after 24 hrs by MTT assay; format: functional, cell-based; conditions: HepG2, 24 h
[6] = test system: Candida albicans; assay: Antifungal activity against Candida albicans MTCC 227 after 24 hrs by well diffusion method; format: functional; conditions: MTCC 227, 24 h
[7] = test system: Staphylococcus aureus; assay: Antibacterial activity against Staphylococcus aureus MTCC 96 after 24 hrs by well diffusion method; format: functional; conditions: MTCC 96, 24 h
[8] = test system: Candida albicans; assay: Antifungal activity against Candida albicans MTCC 1637 after 24 hrs by well diffusion method; format: functional; conditions: MTCC 1637, 24 h
[9] = test system: Candida albicans; assay: Antifungal activity against Candida albicans MTCC 3017 after 24 hrs by well diffusion method; format: functional; conditions: MTCC 3017, 24 h
[10] = test system: COLO 205; assay: Cytotoxicity against human COLO205 cells after 24 hrs by MTT assay; format: functional, cell-based; conditions: COLO 205, 24 h
[11] = test system: Pseudomonas aeruginosa; assay: Antibacterial activity against Pseudomonas aeruginosa MTCC 2453 after 24 hrs by well diffusion method; format: functional; conditions: MTCC 2453, 24 h
[12] = test system: HeLa; assay: Cytotoxicity against human HeLa cells after 24 hrs by MTT assay; format: functional, cell-based
[13] = test system: Raoultella planticola; assay: Antibiofilm activity against Klebsiella planticola MTCC 530 after 24 hrs by crystal violet staining based method; format: functional; conditions: MTCC 530, 24 h
[14] = test system: Staphylococcus aureus; assay: Induction of intracellular ROS accumulation in Staphylococcus aureus MLS16 MTCC 2940 sessile biofilm cells assessed as fluorescence intensity at 1 ug/ml after 24 hrs by DCFH-DA staining-based fluorescence assay (reference value: 62 +/- 9.8 a.u.); format: functional
[15] = test system: Escherichia coli; assay: Antibiofilm activity against Escherichia coli MTCC 739 after 24 hrs by crystal violet staining based method; format: functional; conditions: MTCC 739, 24 h
[16] = test system: Raoultella planticola; assay: Antibacterial activity against Klebsiella planticola MTCC 530 after 24 hrs by well diffusion method; format: functional; conditions: MTCC 530, 24 h
[17] = test system: Candida albicans; assay: Antifungal activity against Candida albicans MTCC 3018 after 24 hrs by well diffusion method; format: functional; conditions: MTCC 3018, 24 h
[18] = test system: Candida albicans; assay: Antifungal activity against Candida albicans MTCC 4748 after 24 hrs by well diffusion method; format: functional; conditions: MTCC 4748, 24 h
[19] = test system: Candida albicans; assay: Antifungal activity against Candida albicans MTCC 3958 after 24 hrs by well diffusion method; format: functional; conditions: MTCC 3958, 24 h
[20] = test system: Candida albicans; assay: Antifungal activity against Candida albicans MTCC 854 after 24 hrs by well diffusion method; format: functional; conditions: MTCC 854, 24 h
[21] = test system: Staphylococcus aureus; assay: Antibiofilm activity against Staphylococcus aureus MTCC 96 after 24 hrs by crystal violet staining based method; format: functional; conditions: MTCC 96, 24 h
[22] = test system: Escherichia coli; assay: Antibacterial activity against Escherichia coli MTCC 739 after 24 hrs by well diffusion method; format: functional; conditions: MTCC 739, 24 h
[23] = test system: Staphylococcus aureus; assay: Induction of intracellular ROS accumulation in Staphylococcus aureus MLS16 MTCC 2940 sessile biofilm cells assessed as fluorescence intensity at 4 ug/ml after 24 hrs by DCFH-DA staining-based fluorescence assay (reference value: 62 +/- 9.8 a.u.); format: functional
[24] = test system: Bacillus subtilis; assay: Antibacterial activity against Bacillus subtilis MTCC 121 after 24 hrs by well diffusion method; format: functional; conditions: MTCC 121, 24 h
[25] = test system: Staphylococcus aureus; assay: Induction of intracellular ROS accumulation in Staphylococcus aureus MLS16 MTCC 2940 sessile biofilm cells assessed as fluorescence intensity at 3 ug/ml after 24 hrs by DCFH-DA staining-based fluorescence assay (reference value: 62 +/- 9.8 a.u.); format: functional
[26] = test system: Micrococcus luteus; assay: Antibiofilm activity against Micrococcus luteus MTCC 2470 after 24 hrs by crystal violet staining based method; format: functional; conditions: MTCC 2470, 24 h
[27] = test system: Staphylococcus aureus; assay: Induction of intracellular ROS accumulation in Staphylococcus aureus MLS16 MTCC 2940 sessile biofilm cells assessed as fluorescence intensity at 2 ug/ml after 24 hrs by DCFH-DA staining-based fluorescence assay (reference value: 62 +/- 9.8 a.u.); format: functional
[28] = test system: Bacillus subtilis; assay: Antibiofilm activity against Bacillus subtilis MTCC 121 after 24 hrs by crystal violet staining based method; format: functional; conditions: MTCC 121, 24 h
[29] = test system: A549; assay: Cytotoxicity against human A549 cells after 24 hrs by MTT assay; format: functional, cell-based; conditions: A549, 24 h
[30] = test system: Candida albicans; assay: Antifungal activity against Candida albicans MTCC 7315 after 24 hrs by well diffusion method; format: functional; conditions: MTCC 7315, 24 h
[31] = test system: Staphylococcus aureus; assay: Antibacterial activity against Staphylococcus aureus MLS16 MTCC 2940 after 24 hrs by well diffusion method; format: functional; conditions: MLS16 MTCC 2940, 24 h
[32] = test system: Candida parapsilosis; assay: Antifungal activity against Candida parapsilosis MTCC 1744 after 24 hrs by well diffusion method; format: functional; conditions: MTCC 1744, 24 h
[33] = test system: Nakaseomyces glabratus; assay: Antifungal activity against Candida glabrata MTCC 3019 after 24 hrs by well diffusion method; format: functional; conditions: MTCC 3019, 24 h
[34] = test system: Pichia sporocuriosa; assay: Antifungal activity against Issatchenkia hanoiensis MTCC 4755 after 24 hrs by well diffusion method; format: functional; conditions: MTCC 4755, 24 h
[35] = test system: Micrococcus luteus; assay: Antibacterial activity against Micrococcus luteus MTCC 2470 after 24 hrs by well diffusion method; format: functional; conditions: MTCC 2470, 24 h
[36] = test system: Pichia kudriavzevii; assay: Antifungal activity against Candida krusei MTCC 3020 after 24 hrs by well diffusion method; format: functional; conditions: MTCC 3020, 24 h
[37] = test system: A549; assay: Cytotoxicity against human A549 cells at >100 uM after 24 hrs by MTT assay; format: functional, cell-based
[38] = test system: HepG2; assay: Cytotoxicity against human HepG2 cells at >100 uM after 24 hrs by MTT assay; format: functional, cell-based
[39] = test system: HeLa; assay: Cytotoxicity against human HeLa cells at >100 uM after 24 hrs by MTT assay; format: functional, cell-based
[40] = test system: COLO 205; assay: Cytotoxicity against human COLO205 cells at >100 uM after 24 hrs by MTT assay; format: functional, cell-based

SMILES: O=C(Cn1nc(C(F)(F)F)c2c(-c3ccccc3)c3ccccc3nc21)NCCN1CCNCC1
- IC50 [1]: 2.1 µM
- IC50 [2]: 5.1 µM
- MIC [3]: 15.6 µg/mL (≈ 32.3 µM)
- MIC [4]: 7.8 µg/mL (≈ 16.2 µM)
- IC50 [5]: 11.2 µM
- MIC [6]: 15.6 µg/mL (≈ 32.3 µM)
- MIC [7]: 7.8 µg/mL (≈ 16.2 µM)
- MIC [8]: 7.8 µg/mL (≈ 16.2 µM)
- MIC [9]: 7.8 µg/mL (≈ 16.2 µM)
- IC50 [10]: 12.2 µM
- MIC [11]: > 125 µg/mL
- IC50 [12]: 13.6 µM
- IC50 [13]: 2.3 µM
- Flu intensity [14]: 492 a.u.
- IC50 [15]: 4.2 µM
- MIC [16]: 3.9 µg/mL (≈ 8.08 µM)
- MIC [17]: 15.6 µg/mL (≈ 32.3 µM)
- MIC [18]: 7.8 µg/mL (≈ 16.2 µM)
- MIC [19]: 15.6 µg/mL (≈ 32.3 µM)
- MIC [20]: 15.6 µg/mL (≈ 32.3 µM)
- IC50 [21]: 4.1 µM
- MIC [22]: 7.8 µg/mL (≈ 16.2 µM)
- Flu intensity [23]: 1342 a.u.
- MIC [24]: 3.9 µg/mL (≈ 8.08 µM)
- Flu intensity [25]: 101 a.u.
- IC50 [26]: 2.5 µM
- Flu intensity [27]: 792 a.u.
- IC50 [28]: 2.2 µM
- IC50 [29]: 10.6 µM
- MIC [30]: 15.6 µg/mL (≈ 32.3 µM)
- MIC [31]: 3.9 µg/mL (≈ 8.08 µM)
- MIC [32]: 7.8 µg/mL (≈ 16.2 µM)
- MIC [33]: 15.6 µg/mL (≈ 32.3 µM)
- MIC [34]: 7.8 µg/mL (≈ 16.2 µM)
- MIC [35]: 3.9 µg/mL (≈ 8.08 µM)
- MIC [36]: 15.6 µg/mL (≈ 32.3 µM)

SMILES: O=C(Cn1nc(C(F)(F)F)c2c(-c3ccccc3)c3ccccc3nc21)N1CCN(CCO)CC1
- MIC [7]: 7.8 to 125 µg/mL (≈ 16.1 to 259 µM)
- Activity [37]: inactive
- MIC [11]: 7.8 to 125 µg/mL (≈ 16.1 to 259 µM)
- MIC [16]: 7.8 to 125 µg/mL (≈ 16.1 to 259 µM)
- MIC [22]: 7.8 to 125 µg/mL (≈ 16.1 to 259 µM)
- MIC [24]: 7.8 to 125 µg/mL (≈ 16.1 to 259 µM)
- Activity [38]: inactive
- Activity [39]: inactive
- Activity [40]: inactive
- MIC [31]: 7.8 to 125 µg/mL (≈ 16.1 to 259 µM)
- MIC [35]: 7.8 to 125 µg/mL (≈ 16.1 to 259 µM)

SMILES: COc1ccc(NC(=O)Cn2nc(C(F)(F)F)c3c(C)c4ccccc4nc32)cc1
- MIC [7]: 7.8 to 125 µg/mL (≈ 18.8 to 302 µM)
- Activity [37]: inactive
- MIC [11]: 7.8 to 125 µg/mL (≈ 18.8 to 302 µM)
- MIC [16]: 7.8 to 125 µg/mL (≈ 18.8 to 302 µM)
- MIC [22]: 7.8 to 125 µg/mL (≈ 18.8 to 302 µM)
- MIC [24]: 7.8 to 125 µg/mL (≈ 18.8 to 302 µM)
- Activity [38]: inactive
- Activity [39]: inactive
- Activity [40]: inactive
- MIC [31]: 7.8 to 125 µg/mL (≈ 18.8 to 302 µM)
- MIC [35]: 7.8 to 125 µg/mL (≈ 18.8 to 302 µM)
